In ChEMBL document CHEMBL5303573, “Mapping human microbiome drug metabolism by gut bacteria and their genes” (Nature, 2019):

Tests used:
[1] = bacteroides thetaiotaomicron, 12 h, 2 µM
Description: The drug is tested on Bacteroides thetaiotaomicron strain: 3731 for biotransformation. The drug concentrations were measured before and after a 12-h incubation by liquid-chromatography-coupled mass spectrometry (LC–MS)

[2] = The drug is tested on Bacteroides pectinophilus strain: ATCC43243 for biotransformation. The drug concentrations were measured before and after a 12-h incubation by liquid-chromatography-coupled mass spectrometry (LC–MS); details: 2 µM
[3] = The drug is tested on Enterobacter cancerogenus strain: ATCC35316 for biotransformation. The drug concentrations were measured before and after a 12-h incubation by liquid-chromatography-coupled mass spectrometry (LC–MS); details: 2 µM
[4] = The drug is tested on Eubacterium hallii strain: DSM3353 for biotransformation. The drug concentrations were measured before and after a 12-h incubation by liquid-chromatography-coupled mass spectrometry (LC–MS); details: anaerobutyricum hallii, 2 µM
[5] = The drug is tested on Bifidobacterium longum subsp. Infantis strain: CCUG52486 for biotransformation. The drug concentrations were measured before and after a 12-h incubation by liquid-chromatography-coupled mass spectrometry (LC–MS); details: 2 µM
[6] = The drug is tested on Bacteroides caccae strain: ATCC43185 for biotransformation. The drug concentrations were measured before and after a 12-h incubation by liquid-chromatography-coupled mass spectrometry (LC–MS); details: 2 µM
[7] = The drug is tested on Bifidobacterium breve strain: DSM20213 for biotransformation. The drug concentrations were measured before and after a 12-h incubation by liquid-chromatography-coupled mass spectrometry (LC–MS); details: 2 µM
[8] = bacteroides stercoris, 12 h, 2 µM
Description: The drug is tested on Bacteroides stercoris strain: ATCC43183 for biotransformation. The drug concentrations were measured before and after a 12-h incubation by liquid-chromatography-coupled mass spectrometry (LC–MS)

[9] = The drug is tested on Collinsella intestinalis strain: DSM13280 for biotransformation. The drug concentrations were measured before and after a 12-h incubation by liquid-chromatography-coupled mass spectrometry (LC–MS); details: 2 µM
[10] = The drug is tested on Odoribacter splanchnicus strain: fecal isolate for biotransformation. The drug concentrations were measured before and after a 12-h incubation by liquid-chromatography-coupled mass spectrometry (LC–MS); details: 2 µM
[11] = The drug is tested on Escherichia coli strain: BW25113 for biotransformation. The drug concentrations were measured before and after a 12-h incubation by liquid-chromatography-coupled mass spectrometry (LC–MS); details: 2 µM
[12] = The drug is tested on Bifidobacterium ruminantium strain: fecal isolate for biotransformation. The drug concentrations were measured before and after a 12-h incubation by liquid-chromatography-coupled mass spectrometry (LC–MS); details: 2 µM
[13] = The drug is tested on Clostridium asparagiforme strain: DSM15981 for biotransformation. The drug concentrations were measured before and after a 12-h incubation by liquid-chromatography-coupled mass spectrometry (LC–MS); assay type: ADME; parameters: dose 2 uM, timepoint 0 vs 12 hours; details: enterocloster asparagiformis, 2 µM
[14] = limosilactobacillus reuteri cf48-3a, 12 h, 2 µM
Description: The drug is tested on Lactobacillus reuteri CF48-3A strain: BEI HM-102 for biotransformation. The drug concentrations were measured before and after a 12-h incubation by liquid-chromatography-coupled mass spectrometry (LC–MS)

[15] = The drug is tested on Bacteroides fragilis strain: HMW610 for biotransformation. The drug concentrations were measured before and after a 12-h incubation by liquid-chromatography-coupled mass spectrometry (LC–MS); details: 2 µM
[16] = bacteroides thetaiotaomicron, 12 h, 2 µM; remark: listed apart in the source
Description: The drug is tested on Bacteroides thetaiotaomicron strain: VPI-5482 for biotransformation. The drug concentrations were measured before and after a 12-h incubation by liquid-chromatography-coupled mass spectrometry (LC–MS)

[17] = bifidobacterium adolescentis, 12 h, 2 µM
Description: The drug is tested on Bifidobacterium adolescentis strain: ATCC 15703 for biotransformation. The drug concentrations were measured before and after a 12-h incubation by liquid-chromatography-coupled mass spectrometry (LC–MS)

[18] = The drug is tested on Clostridium scindens strain: ATCC35704 for biotransformation. The drug concentrations were measured before and after a 12-h incubation by liquid-chromatography-coupled mass spectrometry (LC–MS); details: 2 µM
[19] = bacteroides intestinalis, 12 h, 2 µM
Description: The drug is tested on Bacteroides intestinalis strain: DSM17393 for biotransformation. The drug concentrations were measured before and after a 12-h incubation by liquid-chromatography-coupled mass spectrometry (LC–MS)

[20] = parabacteroides distasonis, 12 h, 2 µM
Description: The drug is tested on Parabacteroides distasonis strain: ATCC8503 for biotransformation. The drug concentrations were measured before and after a 12-h incubation by liquid-chromatography-coupled mass spectrometry (LC–MS)

| SMILES | Bacterial Biotransformation [1] | Bacterial Biotransformation [2] | Bacterial Biotransformation [3] | Bacterial Biotransformation [4] | Bacterial Biotransformation [5] | Bacterial Biotransformation [6] | Bacterial Biotransformation [7] | Bacterial Biotransformation [8] | Bacterial Biotransformation [9] | Bacterial Biotransformation [10] | Bacterial Biotransformation [11] | Bacterial Biotransformation [12] | Bacterial Biotransformation [13] | Bacterial Biotransformation [14] | Bacterial Biotransformation [15] | Bacterial Biotransformation [16] | Bacterial Biotransformation [17] | Bacterial Biotransformation [18] | Bacterial Biotransformation [19] | Bacterial Biotransformation [20] |
| --- | --- | --- | --- | --- | --- | --- | --- | --- | --- | --- | --- | --- | --- | --- | --- | --- | --- | --- | --- | --- |
| CCCC(=O)Nc1ccc(OCC(O)CNC(C)C)c(C(C)=O)c1 (stereo unspecified) [ACEBUTOLOL] | Compound NOT metabolized | Compound NOT metabolized | Compound NOT metabolized | Compound NOT metabolized | Compound NOT metabolized | Compound NOT metabolized | Compound NOT metabolized | Compound NOT metabolized | Compound NOT metabolized | Compound NOT metabolized | Compound NOT metabolized | Compound NOT metabolized | Compound NOT metabolized | Compound NOT metabolized | Compound NOT metabolized | Compound NOT metabolized | Compound NOT metabolized | Compound NOT metabolized | Compound NOT metabolized | – |
| CN1CCC(=C2c3ccccc3CCc3cccnc32)CC1.O=C(O)/C=C\C(=O)O.O=C(O)/C=C\C(=O)O [AZATADINE MALEATE] | Compound NOT metabolized | Compound NOT metabolized | Compound NOT metabolized | Compound NOT metabolized | Compound NOT metabolized | Compound NOT metabolized | Compound NOT metabolized | Compound NOT metabolized | Compound NOT metabolized | – | Compound NOT metabolized | Compound NOT metabolized | Compound NOT metabolized | Compound NOT metabolized | Compound NOT metabolized | Compound NOT metabolized | Compound NOT metabolized | Compound NOT metabolized | Compound NOT metabolized | Compound NOT metabolized |
| CCc1oc2ccccc2c1C(=O)c1cc(Br)c(O)c(Br)c1 [BENZBROMARONE] | Compound NOT metabolized | Compound NOT metabolized | Compound NOT metabolized | Compound NOT metabolized | Compound NOT metabolized | Compound NOT metabolized | Compound metabolized | Compound NOT metabolized | – | Compound NOT metabolized | Compound NOT metabolized | Compound NOT metabolized | Compound NOT metabolized | – | Compound NOT metabolized | Compound NOT metabolized | Compound NOT metabolized | Compound NOT metabolized | Compound NOT metabolized | Compound NOT metabolized |
| CN/C(=N/CCSCc1nc[nH]c1C)NC#N [CIMETIDINE] | Compound metabolized | Compound NOT metabolized | Compound NOT metabolized | Compound NOT metabolized | – | – | Compound NOT metabolized | Compound NOT metabolized | Compound NOT metabolized | – | Compound NOT metabolized | Compound NOT metabolized | Compound NOT metabolized | Compound NOT metabolized | Compound NOT metabolized | Compound metabolized | Compound NOT metabolized | – | Compound NOT metabolized | Compound NOT metabolized |
| CN1C[C@H](C(=O)N[C@]2(C)O[C@@]3(O)[C@@H]4CCCN4C(=O)[C@H](Cc4ccccc4)N3C2=O)C=C2c3cccc4[nH]cc(c34)C[C@H]21.CN1C[C@H](C(=O)N[C@]2(C)O[C@@]3(O)[C@@H]4CCCN4C(=O)[C@H](Cc4ccccc4)N3C2=O)C=C2c3cccc4[nH]cc(c34)C[C@H]21.O=C(O)C(O)C(O)C(=O)O [ERGOTAMINE TARTRATE] | Compound metabolized | Compound metabolized | Compound metabolized | Compound metabolized | Compound metabolized | Compound metabolized | Compound metabolized | Compound metabolized | Compound NOT metabolized | Compound metabolized | Compound metabolized | Compound metabolized | Compound metabolized | Compound metabolized | – | Compound metabolized | Compound metabolized | Compound metabolized | Compound metabolized | Compound metabolized |
| CC(Oc1c(Cl)cccc1Cl)C1=NCCN1 (stereo unspecified) [LOFEXIDINE] | Compound metabolized | Compound metabolized | Compound metabolized | Compound metabolized | Compound metabolized | Compound metabolized | Compound metabolized | Compound metabolized | Compound NOT metabolized | Compound metabolized | Compound metabolized | Compound metabolized | Compound metabolized | Compound metabolized | – | Compound metabolized | Compound metabolized | Compound metabolized | Compound metabolized | Compound NOT metabolized |
| CNC(=C[N+](=O)[O-])NCCSCc1csc(CN(C)C)n1 [NIZATIDINE] | Compound NOT metabolized | Compound metabolized | Compound metabolized | Compound metabolized | Compound metabolized | Compound NOT metabolized | Compound metabolized | Compound NOT metabolized | Compound metabolized | – | Compound NOT metabolized | Compound metabolized | Compound metabolized | Compound NOT metabolized | Compound metabolized | Compound NOT metabolized | Compound metabolized | Compound metabolized | Compound metabolized | Compound metabolized |
| CC(C(=O)O)c1ccc2c(c1)Cc1cccnc1O2 (stereo unspecified) [PRANOPROFEN] | Compound metabolized | Compound metabolized | Compound NOT metabolized | Compound metabolized | Compound metabolized | Compound metabolized | Compound metabolized | Compound metabolized | – | Compound metabolized | Compound metabolized | Compound metabolized | Compound NOT metabolized | – | Compound metabolized | Compound metabolized | – | Compound NOT metabolized | Compound metabolized | Compound metabolized |
